Assay results published in patent US20220047589A1, “PDE9 INHIBITORS FOR TREATING THALASSEMIA” (Imara Inc., priority 2019, published 2022).
Entries after “also recorded” stand apart in the source; their conditions may differ.

Assays:
Hbb^th1 mice [1] = assay: In vivo study in Hbb^th1 thalassemia mice: blood Hb and RBC levels; set-up: species or system mouse
Description: (§1) This model was used to evaluate the effect of Compound 1 to treat thalassemia.
(§2) Hbb^th1 mice were given Compound 1 dissolved in 10:90 DMSO:corn oil once daily, by oral gavage, at either a high dose (60 mg/kg) or a low dose (30 mg/kg). A normal (C57BL/6) mouse was included as a control in the study to establish baselines along with a Hbb^th1 vehicle mouse not given Compound 1. Animals were observed once daily for morbidity and mortality. Mice were not allowed to recover from anesthesia and were killed by cervical dislocation while still anesthetized. Necropsy was limited to removal and weighing of the spleen for further analysis.
Blood was collected on day 30, from the retroorbital sinus of all mice, while mice were under isoflurane anesthesia, using heparin capillaries and EDTA-coated tubes. Parameters measured were: Hb levels and RBC levels.

[2] = Effect of food on adverse event profile on once-daily administration to patients; assay type: in vivo; conditions: once a day with food
Description: In some embodiments, Compound 1, or a pharmaceutically acceptable salt, solvate, or polymorph thereof is administered to a patient, wherein Compound 1, or a pharmaceutically acceptable salt, solvate, or polymorph thereof is administered once a day with food. […] The incidence and severity of the side effects, such as nausea, emesis and headache, can be reduced when Compound 1, or a pharmaceutically acceptable salt, solvate, or polymorph thereof is taken with food.

Hbb^th1 mice [3] = assay: Erythroblast differentiation (RBC maturation) in spleen cells of treated Hbb^th1 mice by flow cytometry; assay type: in vivo, mouse; conditions: 30 or 60 mg/kg once daily by oral gavage
Description: as §1, §2
RBC maturation is a key mechanistic component in reducing pathology of thalassemia. Therefore, immature RBC (Ery.B: late basophilic and polychromatic) percentage, mature RBC (Ery.C: ortochromatic and reticulocytes) percentage, and maturation index were also measured. […] Cells were further analyzed by flow cytometry (Gallios, Beckman) using FlowJo software v.10.1 (FlowJo, LLC). Results were expressed as the percentage of Ery.B (Live-Dead^neg, Ter-119^pos, CD71^pos, FSC^low) or Ery.C (Live-Dead^neg, Ter-119^pos, CD71^neg, FSC^low) populations. Maturation index was calculated as Ery.B/Ery.C ratio.

Structure (SMILES): C[C@@H]1CN(Cc2ncccn2)C[C@H]1c1cn2c(C3CCOCC3)ncc2c(=O)[nH]1 [Compound 1, 6-[(3S,4S)-4-methyl-1-(pyrimidin-2-ylmethyl)pyrrolidin-3-yl]-3-tetrahydropyran-4-yl-7H-imidazo[1,5-a]pyrazin-8-one]
- Hb levels (total Hb amount) (Hbb^th1 mice [1]; 30 or 60 mg/kg once daily by oral gavage, blood on day 30, FIG. 1A): increase Hb levels; also recorded: increases the total Hb amount
- RBC levels (RBC amount) (Hbb^th1 mice [1]; 30 or 60 mg/kg once daily by oral gavage, blood on day 30, FIG. 1B): increased RBC levels; also recorded: increases
- increase of total Hb vs. control groups (Hbb^th1 mice [1]; high dose (60 mg/kg), once daily by oral gavage, blood collected on day 30): 1.3 g/dL
- adverse event profile (nausea, emesis, headache) when taken with food [2]: food reduce the adverse event profile dramatically
- immature RBC (Ery.B) percentage (Hbb^th1 mice [3]; FIG. 2A): reduces immature RBC cell percentages; also recorded: reduces immature RBC levels
- mature RBC (Ery.C) percentage (Hbb^th1 mice [3]; FIG. 2B): increases mature RBC cell percentages; also recorded: increases mature RBC levels
